# In patent US9682995B2, “Amino-substituted isothiazoles” (BAYER PHARMA AKTIENGESELLSCHAFT, priority 2013, dated 2017):
# How the values were obtained:
# Assay in all cases: Kinase Profiling (KINOMEscan)
# Type in all cases: binding
# [1] = molecular target: 456 kinases (of these 395 non-mutant kinases) (Homo sapiens, UniProt P00519, H396P); details: 10 μM
# [2] = molecular target: 456 kinases (of these 395 non-mutant kinases) (Homo sapiens, UniProt Q9H2G2); details: SLK; 10 μM
# [3] = molecular target: 456 kinases (of these 395 non-mutant kinases) (Homo sapiens, UniProt P00533, DEL752-759); details: EGFR(S752-I759del); 10 μM
# [4] = molecular target: 456 kinases (of these 395 non-mutant kinases) (Homo sapiens, UniProt O75676); details: 10 μM
# [5] = molecular target: 456 kinases (of these 395 non-mutant kinases) (Homo sapiens, UniProt Q00532); details: CDKL1; 10 μM
# [6] = molecular target: 456 kinases (of these 395 non-mutant kinases) (Homo sapiens, UniProt Q14680); details: MELK; 10 μM
# [7] = molecular target: 456 kinases (of these 395 non-mutant kinases) (Homo sapiens, UniProt Q9Y2K2); details: QSK; 10 μM
# [8] = molecular target: 456 kinases (of these 395 non-mutant kinases) (Homo sapiens, UniProt Q59H18); details: TNNI3K; 10 μM
# [9] = molecular target: 456 kinases (of these 395 non-mutant kinases) (Homo sapiens, UniProt Q15569); details: TESK1; 10 μM
# [10] = molecular target: 456 kinases (of these 395 non-mutant kinases) (Homo sapiens, UniProt Q6P3R8); details: NEK5; 10 μM
# [11] = molecular target: 456 kinases (of these 395 non-mutant kinases) (Homo sapiens, UniProt Q8N5S9); details: CAMKK1; 10 μM
# [12] = molecular target: 456 kinases (of these 395 non-mutant kinases) (Homo sapiens, UniProt P78356); details: PIP5K2B; 10 μM
# [13] = molecular target: 456 kinases (of these 395 non-mutant kinases) (Homo sapiens, UniProt Q15375); details: EPHA7; 10 μM
# [14] = molecular target: 456 kinases (of these 395 non-mutant kinases) (Homo sapiens, UniProt O43318); details: TAK1; 10 μM
# [15] = molecular target: 456 kinases (of these 395 non-mutant kinases) (Homo sapiens, UniProt P36888, D835H); details: FLT3(D835H); 10 μM
# [16] = molecular target: 456 kinases (of these 395 non-mutant kinases) (Homo sapiens, UniProt Q8TDX7); details: NEK7; 10 μM
# [17] = molecular target: 456 kinases (of these 395 non-mutant kinases) (Homo sapiens, UniProt Q8TD19); details: NEK9; 10 μM
# [18] = molecular target: 456 kinases (of these 395 non-mutant kinases) (Homo sapiens, UniProt Q9Y4K4); details: MAP4K5; 10 μM
# [19] = molecular target: 456 kinases (of these 395 non-mutant kinases) (Homo sapiens, UniProt Q07002); details: PCTK3; 10 μM
# [20] = molecular target: 456 kinases (of these 395 non-mutant kinases) (Homo sapiens, UniProt Q16832); details: DDR2; 10 μM
# [21] = molecular target: 456 kinases (of these 395 non-mutant kinases) (Homo sapiens, UniProt O75385); details: ULK1; 10 μM
# [22] = molecular target: 456 kinases (of these 395 non-mutant kinases) (Homo sapiens, UniProt Q14012); details: CAMK1; 10 μM
# [23] = molecular target: 456 kinases (of these 395 non-mutant kinases) (Homo sapiens, UniProt P68400); details: CSNK2A1; 10 μM
# [24] = molecular target: 456 kinases (of these 395 non-mutant kinases) (Homo sapiens, UniProt Q8WU08); details: YANK1; 10 μM
# [25] = molecular target: 456 kinases (of these 395 non-mutant kinases) (Homo sapiens, UniProt O94804); details: LOK; 10 μM
# [26] = molecular target: 456 kinases (of these 395 non-mutant kinases) (Homo sapiens, UniProt P48736); details: PIK3CG; 10 μM
# [27] = molecular target: 456 kinases (of these 395 non-mutant kinases) (Homo sapiens, UniProt Q8NI60); details: ADCK3; 10 μM
# [28] = molecular target: 456 kinases (of these 395 non-mutant kinases) (Homo sapiens, UniProt O15075); details: DCAMKL1; 10 μM
# [29] = molecular target: 456 kinases (of these 395 non-mutant kinases) (Homo sapiens, UniProt Q02156); details: PRKCE; 10 μM
# [30] = molecular target: 456 kinases (of these 395 non-mutant kinases) (Homo sapiens, UniProt O95819); details: MAP4K4; 10 μM
# [31] = molecular target: 456 kinases (of these 395 non-mutant kinases) (Homo sapiens, UniProt P54756); details: EPHA5; 10 μM
# 456 kinases (of these 395 non-mutant kinases) (Homo sapiens, UniProt P54756), sequence (P54756 25-1037 limits assumed, change not shown): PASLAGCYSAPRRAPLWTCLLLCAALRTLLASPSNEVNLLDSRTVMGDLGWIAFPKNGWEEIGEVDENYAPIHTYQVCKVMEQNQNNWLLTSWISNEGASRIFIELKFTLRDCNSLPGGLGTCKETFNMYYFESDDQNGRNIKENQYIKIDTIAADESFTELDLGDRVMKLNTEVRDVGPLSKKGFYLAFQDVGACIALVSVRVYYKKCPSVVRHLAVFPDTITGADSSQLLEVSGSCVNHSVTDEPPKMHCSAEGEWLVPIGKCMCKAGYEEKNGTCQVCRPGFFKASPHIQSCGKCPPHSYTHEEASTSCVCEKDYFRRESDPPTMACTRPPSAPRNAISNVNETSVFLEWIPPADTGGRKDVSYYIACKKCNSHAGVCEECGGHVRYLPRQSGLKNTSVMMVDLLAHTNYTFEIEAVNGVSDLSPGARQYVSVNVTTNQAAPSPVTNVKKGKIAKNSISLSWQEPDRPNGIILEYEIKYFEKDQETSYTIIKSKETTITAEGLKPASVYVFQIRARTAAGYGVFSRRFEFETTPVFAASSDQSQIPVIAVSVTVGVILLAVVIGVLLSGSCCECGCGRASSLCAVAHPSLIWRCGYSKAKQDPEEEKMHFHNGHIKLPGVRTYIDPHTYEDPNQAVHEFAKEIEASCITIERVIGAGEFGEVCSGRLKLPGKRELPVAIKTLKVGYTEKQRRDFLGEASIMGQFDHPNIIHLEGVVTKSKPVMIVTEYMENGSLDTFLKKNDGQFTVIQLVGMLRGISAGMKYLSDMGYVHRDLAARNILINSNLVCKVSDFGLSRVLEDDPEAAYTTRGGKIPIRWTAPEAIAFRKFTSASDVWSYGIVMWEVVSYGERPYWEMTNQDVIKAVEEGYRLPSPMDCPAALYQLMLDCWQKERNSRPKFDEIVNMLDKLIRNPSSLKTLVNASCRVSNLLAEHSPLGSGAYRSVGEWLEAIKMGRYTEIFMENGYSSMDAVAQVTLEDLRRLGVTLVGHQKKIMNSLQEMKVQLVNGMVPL
# 456 kinases (of these 395 non-mutant kinases) (Homo sapiens, UniProt Q8WU08), sequence (Q8WU08 2-396 limits assumed, change not shown): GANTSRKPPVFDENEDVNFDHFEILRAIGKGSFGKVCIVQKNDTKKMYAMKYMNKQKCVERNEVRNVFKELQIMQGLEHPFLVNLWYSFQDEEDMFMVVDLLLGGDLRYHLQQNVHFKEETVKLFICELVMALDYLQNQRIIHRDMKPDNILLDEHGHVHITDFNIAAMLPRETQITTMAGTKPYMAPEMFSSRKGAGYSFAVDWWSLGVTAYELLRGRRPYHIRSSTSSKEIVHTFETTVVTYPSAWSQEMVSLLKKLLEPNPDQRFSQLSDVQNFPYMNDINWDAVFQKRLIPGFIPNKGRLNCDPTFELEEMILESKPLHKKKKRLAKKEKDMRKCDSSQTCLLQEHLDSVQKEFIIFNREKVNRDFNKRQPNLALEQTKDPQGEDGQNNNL
# 456 kinases (of these 395 non-mutant kinases) (Homo sapiens, UniProt Q8TD19), sequence (Q8TD19 2-979 limits assumed, change not shown): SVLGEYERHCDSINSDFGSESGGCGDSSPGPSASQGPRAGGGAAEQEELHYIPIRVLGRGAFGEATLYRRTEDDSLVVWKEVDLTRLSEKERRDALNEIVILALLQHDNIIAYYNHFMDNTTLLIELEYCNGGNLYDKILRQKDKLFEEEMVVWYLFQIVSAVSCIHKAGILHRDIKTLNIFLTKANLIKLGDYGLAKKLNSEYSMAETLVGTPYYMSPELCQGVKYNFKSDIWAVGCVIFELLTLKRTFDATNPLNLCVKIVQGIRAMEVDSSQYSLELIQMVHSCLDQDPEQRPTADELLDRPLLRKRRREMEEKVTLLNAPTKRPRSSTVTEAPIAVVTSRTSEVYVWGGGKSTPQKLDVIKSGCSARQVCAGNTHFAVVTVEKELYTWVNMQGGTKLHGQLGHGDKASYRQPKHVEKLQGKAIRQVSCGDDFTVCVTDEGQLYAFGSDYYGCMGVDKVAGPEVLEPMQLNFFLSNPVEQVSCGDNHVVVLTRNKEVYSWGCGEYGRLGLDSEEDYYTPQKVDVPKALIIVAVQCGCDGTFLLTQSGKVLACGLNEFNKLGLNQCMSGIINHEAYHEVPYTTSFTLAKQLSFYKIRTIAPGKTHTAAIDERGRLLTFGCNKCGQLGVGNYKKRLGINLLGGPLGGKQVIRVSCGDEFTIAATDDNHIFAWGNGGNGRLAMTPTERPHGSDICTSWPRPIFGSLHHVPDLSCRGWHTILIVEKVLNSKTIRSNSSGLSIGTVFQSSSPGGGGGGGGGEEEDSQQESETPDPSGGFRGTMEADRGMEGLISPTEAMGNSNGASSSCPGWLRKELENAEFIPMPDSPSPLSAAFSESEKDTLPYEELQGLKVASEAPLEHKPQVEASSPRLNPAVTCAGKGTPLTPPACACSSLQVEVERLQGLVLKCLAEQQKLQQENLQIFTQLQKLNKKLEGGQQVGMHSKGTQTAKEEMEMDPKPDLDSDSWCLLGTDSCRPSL
# 456 kinases (of these 395 non-mutant kinases) (Homo sapiens, UniProt P78356), sequence (P78356 2-416 limits assumed, change not shown): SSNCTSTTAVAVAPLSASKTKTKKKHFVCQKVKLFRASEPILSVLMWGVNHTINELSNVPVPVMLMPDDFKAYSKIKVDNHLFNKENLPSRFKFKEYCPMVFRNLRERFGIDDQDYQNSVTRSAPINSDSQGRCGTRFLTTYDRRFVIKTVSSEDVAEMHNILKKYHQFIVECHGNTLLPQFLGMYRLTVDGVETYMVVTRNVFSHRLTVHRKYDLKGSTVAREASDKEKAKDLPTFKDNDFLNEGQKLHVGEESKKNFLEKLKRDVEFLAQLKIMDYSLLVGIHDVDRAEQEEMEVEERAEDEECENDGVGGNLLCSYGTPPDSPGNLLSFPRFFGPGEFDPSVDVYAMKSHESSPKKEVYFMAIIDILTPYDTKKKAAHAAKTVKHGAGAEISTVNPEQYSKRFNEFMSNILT
# 456 kinases (of these 395 non-mutant kinases) (Homo sapiens, UniProt Q8NI60), sequence (Q8NI60 163-647 limits assumed, change not shown): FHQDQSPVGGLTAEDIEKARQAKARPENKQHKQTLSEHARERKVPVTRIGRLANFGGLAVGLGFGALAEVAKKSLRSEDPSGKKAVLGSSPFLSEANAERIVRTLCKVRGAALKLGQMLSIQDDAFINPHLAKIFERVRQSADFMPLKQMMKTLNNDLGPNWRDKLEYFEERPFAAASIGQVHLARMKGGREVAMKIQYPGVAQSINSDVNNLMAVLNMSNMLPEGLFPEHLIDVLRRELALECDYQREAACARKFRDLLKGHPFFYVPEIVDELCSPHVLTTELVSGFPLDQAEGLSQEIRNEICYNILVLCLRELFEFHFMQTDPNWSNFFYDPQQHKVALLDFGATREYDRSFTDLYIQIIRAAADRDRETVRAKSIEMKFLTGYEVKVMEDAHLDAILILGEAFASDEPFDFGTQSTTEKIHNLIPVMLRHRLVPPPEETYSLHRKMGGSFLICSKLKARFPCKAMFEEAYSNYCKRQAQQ
# 456 kinases (of these 395 non-mutant kinases) (Homo sapiens, UniProt Q16832), sequence (Q16832 22-855 limits assumed, change not shown): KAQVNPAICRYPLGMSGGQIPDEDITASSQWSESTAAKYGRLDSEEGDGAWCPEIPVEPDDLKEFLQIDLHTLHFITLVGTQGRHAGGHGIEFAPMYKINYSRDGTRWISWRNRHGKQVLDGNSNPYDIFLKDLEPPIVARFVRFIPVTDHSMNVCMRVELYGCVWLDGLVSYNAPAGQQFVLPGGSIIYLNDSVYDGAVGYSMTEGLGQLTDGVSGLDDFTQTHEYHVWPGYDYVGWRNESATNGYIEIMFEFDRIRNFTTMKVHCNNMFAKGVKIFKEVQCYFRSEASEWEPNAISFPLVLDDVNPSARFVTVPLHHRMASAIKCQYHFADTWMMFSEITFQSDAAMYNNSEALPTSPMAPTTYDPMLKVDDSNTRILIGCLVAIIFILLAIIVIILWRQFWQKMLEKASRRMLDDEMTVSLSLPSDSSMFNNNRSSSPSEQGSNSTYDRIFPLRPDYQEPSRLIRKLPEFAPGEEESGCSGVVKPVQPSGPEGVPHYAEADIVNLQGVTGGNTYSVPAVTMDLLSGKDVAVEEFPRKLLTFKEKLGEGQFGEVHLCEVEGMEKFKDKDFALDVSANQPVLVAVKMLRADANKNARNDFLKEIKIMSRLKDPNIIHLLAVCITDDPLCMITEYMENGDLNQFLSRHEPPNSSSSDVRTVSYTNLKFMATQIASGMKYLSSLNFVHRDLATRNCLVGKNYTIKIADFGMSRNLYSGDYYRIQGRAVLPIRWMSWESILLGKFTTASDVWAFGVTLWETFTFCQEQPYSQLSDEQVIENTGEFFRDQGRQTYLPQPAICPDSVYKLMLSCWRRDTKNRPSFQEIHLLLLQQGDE
smiles,measurement,setting,value
"CCc1ccccc1NC(=O)c1c(C)nsc1Nc1cnc2cc(F)ccc2n1 [Example 20, N-(2-Ethylphenyl)-5-[(6-fluoroquinoxalin-2-yl)amino]-3-methyl-1,2-thiazole-4-carboxamide]",% Ctrl @ 10 μM,[1]; ABL1(H396P)-nonphosphorylated,100 % Ctrl
same,% Ctrl @ 10 μM,[1]; ABL1(H396P)-phosphorylated,92 % Ctrl
same,% Ctrl @ 10 μM,[2],95 % Ctrl
same,% Ctrl @ 10 μM,[3],100 % Ctrl
same,% Ctrl @ 10 μM,[4]; RPS6KA4(Kin.Dom.1-N-terminal),93 % Ctrl
same,% Ctrl @ 10 μM,[4]; RPS6KA4(Kin.Dom.2-C-terminal),88 % Ctrl
same,% Ctrl @ 10 μM,[5],100 % Ctrl
same,% Ctrl @ 10 μM,[6],100 % Ctrl
same,% Ctrl @ 10 μM,[7],91 % Ctrl
same,% Ctrl @ 10 μM,[8],85 % Ctrl
same,% Ctrl @ 10 μM,[9],78 % Ctrl
same,% Ctrl @ 10 μM,[10],100 % Ctrl
same,% Ctrl @ 10 μM,[11],80 % Ctrl
same,% Ctrl @ 10 μM,[12],86 % Ctrl
same,% Ctrl @ 10 μM,[13],100 % Ctrl
same,% Ctrl @ 10 μM,[14],100 % Ctrl
same,% Ctrl @ 10 μM,[15],83 % Ctrl
same,% Ctrl @ 10 μM,[16],79 % Ctrl
same,% Ctrl @ 10 μM,[17],78 % Ctrl
same,% Ctrl @ 10 μM,[18],89 % Ctrl
same,% Ctrl @ 10 μM,[19],82 % Ctrl
same,% Ctrl @ 10 μM,[20],100 % Ctrl
same,% Ctrl @ 10 μM,[21],100 % Ctrl
same,% Ctrl @ 10 μM,[22],68 % Ctrl
same,% Ctrl @ 10 μM,[23],85 % Ctrl
same,% Ctrl @ 10 μM,[24],100 % Ctrl
same,% Ctrl @ 10 μM,[25],100 % Ctrl
same,% Ctrl @ 10 μM,[26],99 % Ctrl
same,% Ctrl @ 10 μM,[27],64 % Ctrl
same,% Ctrl @ 10 μM,[28],92 % Ctrl
same,% Ctrl @ 10 μM,[29],75 % Ctrl
same,% Ctrl @ 10 μM,[30],100 % Ctrl
same,% Ctrl @ 10 μM,[31],99 % Ctrl
